Laboratory results as given in US6133294A (priority 1999, dated 2000).

Experiments:
Type in all cases: in vivo
Puccinia recondita = experiment: Brown rust (Puccinia recondita--PUCCRT); conditions: wheat (cultivar Monon), 100 ppm spray to run off, inoculated after 24 hours; for pest or weed control at 100 ppm: Puccinia recondita, 1DP, read-out: control of plant disease, PUCCRT 1DP
Protocol: (§1) Compound Formulation: Compound formulation was accomplished by dissolving technical materials in acetone, with serial dilutions then made in acetone to obtain desired rates. Final treatment volumes were obtained by adding nine volumes 0.05% aqueous Tween-20 or Triton X-100, depending upon the pathogen.
(§2) Brown rust (Puccinia recondita--PUCCRT): Wheat (cultivar Monon) was grown from seed in a soilless peat-based potting mixture (Metromix) until the seedlings were 1-2). These plants were then sprayed to run off with the test compound at a rate of 100 ppm. After 24 hours the test plants were inoculated with an aqueous spore suspension of Puccinia recondita. The plants were then transferred to the greenhouse until disease developed on the untreated control plants.
(§3) the following table presents the activity of typical compounds of the present invention when evaluated in these experiments. The effectiveness of the test compounds in controlling disease was rated using the following scale: […]

Phytophthora infestans = experiment: whole plant or invertebrate; conditions: for control of plant disease, PHYTIN 1DP: tomatoes (cultivar Rutgers), 100 ppm spray to run off, inoculated after 24 hours; for pest or weed control at 100 ppm: Phytophthora infestans, 24 h, read-out: control of plant disease, PHYTIN 1DP
Erysiphe graminis = experiment: Powdery Mildew of Wheat (Erysiphe graminis--ERYSGT); conditions: wheat (cultivar Monon), 100 ppm spray to run off, inoculated after 24 hours; for pest or weed control at 100 ppm: Blumeria graminis, 1DP, read-out: control of plant disease, ERYSGT 1DP
Protocol: as §1
Powdery Mildew of Wheat (Erysiphe graminis--ERYSGT): Wheat (cultivar Monon) was grown in a soilless peat-based potting mixture (Metromix) until the seedlings were 1-2 leaf (BBCH 12). These plants were then sprayed to run off with the test compound at a rate of 100 ppm. After 24 hours the test plants were inoculated with Erysiphe graminis by dusting spores from stock plants onto the test plants. The plants were then transferred to the greenhouse until disease developed on the untreated control plants.
as §3

Leptosphaeria nodorum = experiment: Glume blotch of wheat (Leptosphaeria nodorum--LEPTNO); conditions: wheat (cultivar Monon), 100 ppm spray to run off, inoculated after 24 hours; for pest or weed control at 100 ppm: Parastagonospora nodorum, 1DP, read-out: control of plant disease, LEPTNO 1DP
Protocol: as §1
as §2, with “Glume blotch of wheat (Leptosphaeria nodorum--LEPTNO):” for “Brown rust (Puccinia recondita--PUCCRT):”, “1-2 leaf (BBCH 12).” for “1-2).”, “Leptosphaeria nodorum.” for “Puccinia recondita.”
as §3

| Structure (SMILES) | control of plant disease, PUCCRT 1DP (Puccinia recondita) | control of plant disease, PHYTIN 1DP (Phytophthora infestans) | control of plant disease, ERYSGT 1DP (Erysiphe graminis) | control of plant disease, LEPTNO 1DP (Leptosphaeria nodorum) | pest or weed control at 100 ppm (Puccinia recondita) [%] | pest or weed control at 100 ppm (Phytophthora infestans) [%] | pest or weed control at 100 ppm (Erysiphe graminis) [%] | pest or weed control at 100 ppm (Leptosphaeria nodorum) [%] |
| --- | --- | --- | --- | --- | --- | --- | --- | --- |
| CNC(=O)C(=NOC)c1cccc(F)c1COc1ncc(-c2noc(C(F)(F)F)n2)cc1Cl [Example 32] | ++ (75-100% control of plant disease) | - (0-24% control of plant disease) | ++ (75-100% control of plant disease) | + (25-74% control of plant disease) |  |  |  |  |
| CON=C(C(=O)OC)c1ccccc1COc1ncc(-c2noc(C(C)(C)C)n2)cc1Cl [Example 97] |  |  |  |  | 75 to 100 | 75 to 100 | 75 to 100 | 75 to 100 |
| CNC(=O)C(=NOC)c1cccc(C)c1COc1ncc(-c2noc(C(F)(F)F)n2)cc1Cl [Example 35] | ++ (75-100% control of plant disease) | - (0-24% control of plant disease) | ++ (75-100% control of plant disease) | ++ (75-100% control of plant disease) |  |  |  |  |
| CNC(=O)C(=NOC)c1ccccc1COc1ncc(-c2noc(CC(C)(C)C)n2)cc1Cl [Example 17] |  |  |  |  | 75 to 100 | 0 to 24 | 75 to 100 | 75 to 100 |
| CNC(=O)C(=NOC)c1ccccc1COc1ncc(-c2nc(C3CC3)no2)cc1Cl [Example 53] |  |  |  |  | 75 to 100 | 75 to 100 | 75 to 100 | 25 to 74 |
| CNC(=O)C(=NOC)c1ccccc1COc1ncc(-c2noc(C(C)C)n2)cc1Cl [Example 37] |  |  |  |  | 75 to 100 | 0 to 24 | 75 to 100 | 75 to 100 |
| CNC(=O)C(=NOC)c1ccccc1COc1ncc(-c2noc(C)n2)cc1Cl [Example 8] |  |  |  |  | 75 to 100 | 0 to 24 | 75 to 100 | 75 to 100 |
| CNC(=O)C(=NOC)c1cccc(F)c1COc1cccc(-c2nc(C(C)(C)C)no2)n1 [Example 88] | ++ (75-100% control of plant disease) | ++ (75-100% control of plant disease) | ++ (75-100% control of plant disease) | ++ (75-100% control of plant disease) |  |  |  |  |
| CNC(=O)C(=NOC)c1ccccc1COc1ncc(-c2nc(N3CCCCC3)no2)cc1Cl [Example 69] | ++ (75-100% control of plant disease) | ++ (75-100% control of plant disease) | ++ (75-100% control of plant disease) | ++ (75-100% control of plant disease) |  |  |  |  |
| CNC(=O)C(=NOC)c1ccccc1COc1ccc(-c2noc(CSc3ccccc3)n2)cn1 [Example 28] |  |  |  |  | 75 to 100 | 75 to 100 | 75 to 100 | 75 to 100 |
| CNC(=O)C(=NOC)c1cccc(Cl)c1COc1cccc(-c2nc(C(C)(C)C)no2)n1 [Example 86] | ++ (75-100% control of plant disease) | + (25-74% control of plant disease) | ++ (75-100% control of plant disease) | - (0-24% control of plant disease) |  |  |  |  |
| CNC(=O)C(=NOC)c1ccccc1COc1ccc(-c2noc(C(C)(C)C)n2)cn1 [Example 9] |  |  |  |  | 75 to 100 | 0 to 24 | 75 to 100 | 75 to 100 |
| CCc1noc(-c2cnc(OCc3ccccc3C(=COC)C(=O)OC)c(Cl)c2)n1 [Example 99] |  |  |  |  | 75 to 100 | 25 to 74 | 75 to 100 | 75 to 100 |
| CNC(=O)C(=NOC)c1ccccc1COc1ccc(Cl)c(-c2nc(C(C)(C)C)no2)n1 [Example 82] |  |  |  |  | 75 to 100 | 75 to 100 | 75 to 100 | 75 to 100 |
| COC=C(C(=O)OC)c1ccccc1COc1ncc(-c2nc(C(C)(C)C)no2)cc1Cl [Example 100] |  |  |  |  | 75 to 100 | 75 to 100 | 25 to 74 | 25 to 74 |
| CNC(=O)C(=NOC)c1ccccc1COc1ccc(-c2noc(-c3ccccc3)n2)cn1 [Example 12] |  |  |  |  | 75 to 100 | 75 to 100 | 75 to 100 | 75 to 100 |
